The results in this text go back to US9770445B2, “Sulfoximine substituted 5-fluoro-N-(pyridin-2-yl)pyridin-2-amine derivatives and their use as CDK9 kinase inhibitors” (BAYER PHARMA AKTIENGESELLSCHAFT, priority 2013, dated 2017).

Assay [1] has as its target T1, CDK9/CycT1 (Homo sapiens, UniProt P50750).
T1 construct: Recombinant full-length His-tagged human CDK9 and CycT1; His; purchased Invitrogen PV4131; host or cells: insect cells
Kind of assay: CDK9/CycT1 kinase assay (Method 1a, TR-FRET). The assay is classed as biochemical. To be noted: for IC50: Method 1a, 10 μM ATP; for Selectivity CDK9 over CDK2: IC50 (CDK2)/IC50 (CDK9): ratio of Method 2 to Method 1a values. From the text:
1a. CDK9/CyeT1 Kinase Assay:
CDK9/CycT1-inhibitory activity of compounds of the present invention was quantified employing the CDK9/CycT1 TR-FRET assay as described in the following paragraphs:
Recombinant full-length His-tagged human CDK9 and CycT1, expressed in insect cells and purified by Ni-NTA affinity chromatography, were purchased from Invitrogen (Cat. No PV4131). As substrate for the kinase reaction biotinylated peptide biotin-Ttds-YISPLKSPYKISEG (C-terminus in amid form) was used which can be purchased e.g. form the company JERINI Peptide Technologies (Berlin, Germany). For the assay 50 nl of a 100 fold concentrated solution of the test compound in DMSO was pipetted into a black low volume 384 well microtiter plate (Greiner Bio-One, Frickenhausen, Germany), 2 μl of a solution of CDK9/CycT1 in aqueous assay buffer [50 mM Tris/HCl pH 8.0, 10 mM MgCl2, 1.0 mM dithiothreitol, 0.1 mM sodium ortho-vanadate, 0.01% (v/v) Nonidet-P40 (Sigma)] were added and the mixture was incubated for 15 min at 22° C. to allow pre-binding of the test compounds to the enzyme before the start of the kinase reaction. Then the kinase reaction was started by the addition of 3 μl of a solution of adenosine-tri-phosphate (ATP, 16.7 μM=>final conc. in the 5 μl assay volume is 10 μM) and substrate (1.67 μM=>final conc. in the 5 μl assay volume is 1 μM) in assay buffer and the resulting mixture was incubated for a reaction time of 25 min at 22° C. The concentration of CDK9/CycT1 was adjusted depending of the activity of the enzyme lot and was chosen appropriate to have the assay in the linear range, typical concentrations were in the range of 1 μg/mL. The reaction was stopped by the addition of 5 μl of a solution of TR-FRET detection reagents (0.2 μM streptavidine-XL665 [Cisbio Bioassays, Codolet, France] and 1 nM anti-RB(pSer807/pSer811)-antibody from BD Pharmingen [#558389] and 1.2 nM LANCE EU-W1024 labeled anti-mouse IgG antibody [Perkin-Elmer, product no. AD0077]) in an aqueous EDTA-solution (100 mM EDTA, 0.2% (w/v) bovine serum albumin in 100 mM HEPES/NaOH pH 7.0).
(§1) The resulting mixture was incubated 1 h at 22° C. to allow the formation of complex between the phosphorylated biotinylated peptide and the detection reagents. Subsequently the amount of phosphorylated substrate was evaluated by measurement of the resonance energy transfer from the Eu-chelate to the streptavidine-XL. Therefore, the fluorescence emissions at 620 nm and 665 nm after excitation at 350 nm was measured in a HTRF reader, e.g. a Rubystar (BMG Labtechnologies, Offenburg, Germany) or a Viewlux (Perkin-Elmer). The ratio of the emissions at 665 nm and at […] was taken as the measure for the amount of phosphorylated substrate. The data were normalised (enzyme reaction without inhibitor=0% inhibition, all other assay components but no enzyme=100% inhibition).
A general note: Time-resolved FRET reads energy transfer from a long-lived donor to a nearby acceptor.

Assay [2] deals with T1, CDK9/CycT1. Kind of assay: CDK9/CycT1 high ATP kinase assay (Method 1b, TR-FRET). Format: biochemical. To be noted: 2 mM ATP. The procedure:
1b. CDK9/CyeT1 High ATP Kinase Assay
CDK9/CycT1-inhibitory activity of compounds of the present invention at a high ATP concentration after preincubation of enzyme and test compounds was quantified employing the CDK9/CycT1 TR-FRET assay as described in the following paragraphs.
Recombinant full-length His-tagged human CDK9 and CycT1, expressed in insect cells and purified by Ni-NTA affinity chromatography, were purchase from Invitrogen (Cat. No PV4131). As substrate for the kinase reaction biotinylated peptide biotin-Ttds-YISPLKSPYKISEG (C-terminus in amid form) was used which can be purchased e.g. form the company JERINI peptide technologies (Berlin, Germany). For the assay 50 nl of a 100 fold concentrated solution of the test compound in DMSO was pipetted into a black low volume 384 well microtiter plate (Greiner Bio-One, Frickenhausen, Germany), 2 μl of a solution of CDK9/CycT1 in aqueous assay buffer [50 mM Tris/HCl pH 8.0, 10 mM MgCl2, 1.0 mM dithiothreitol, 0.1 mM sodium ortho-vanadate, 0.01% (v/v) Nonidet-P40 (Sigma)] were added and the mixture was incubated for […] at 22° C. to allow pre-binding of the test compounds to the enzyme before the start of the kinase reaction. Then the kinase reaction was started by the addition of 3 μl of a solution of adenosine-tri-phosphate (ATP, 3.3 mM=>final conc. in the 5 μl assay volume is 2 mM) and substrate (1.67 μM=>final conc. in the 5 μl assay volume is 1 μM) in assay buffer and the resulting mixture was incubated for a reaction time of […] at 22° C. The concentration of CDK9/CycT1 was adjusted depending of the activity of the enzyme lot and was chosen appropriate to have the assay in the linear range, typical concentrations were in the range of 0.5 μg/mL The reaction was stopped by the addition of 5 μl of a solution of TR-FRET detection reagents (0.2 μM streptavidine-XL665 [Cisbio Bioassays, Codolet, France] and 1 nM anti-RB(pSer807/pSer811)-antibody from BD Pharmingen [#558389] and 1.2 nM LANCE EU-W1024 labeled anti-mouse IgG antibody [Perkin-Elmer, product no. AD0077]) in an aqueous EDTA-solution (100 mM EDTA, 0.2% (w/v) bovine serum albumin in 100 mM HEPES/NaOH pH 7.0).
as §1

T1 sequence (P50750 whole entry): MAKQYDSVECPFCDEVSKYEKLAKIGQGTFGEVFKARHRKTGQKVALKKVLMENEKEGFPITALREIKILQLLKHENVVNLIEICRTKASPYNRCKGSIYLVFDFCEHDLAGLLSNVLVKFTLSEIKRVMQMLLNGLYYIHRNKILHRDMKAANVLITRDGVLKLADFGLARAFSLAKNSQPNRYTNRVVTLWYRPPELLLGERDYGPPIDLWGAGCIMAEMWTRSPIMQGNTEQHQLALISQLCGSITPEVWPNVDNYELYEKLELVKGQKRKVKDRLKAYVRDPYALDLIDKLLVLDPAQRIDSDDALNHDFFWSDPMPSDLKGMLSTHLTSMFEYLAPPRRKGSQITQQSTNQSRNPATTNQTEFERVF
T1 sequence (O60563 whole entry partner): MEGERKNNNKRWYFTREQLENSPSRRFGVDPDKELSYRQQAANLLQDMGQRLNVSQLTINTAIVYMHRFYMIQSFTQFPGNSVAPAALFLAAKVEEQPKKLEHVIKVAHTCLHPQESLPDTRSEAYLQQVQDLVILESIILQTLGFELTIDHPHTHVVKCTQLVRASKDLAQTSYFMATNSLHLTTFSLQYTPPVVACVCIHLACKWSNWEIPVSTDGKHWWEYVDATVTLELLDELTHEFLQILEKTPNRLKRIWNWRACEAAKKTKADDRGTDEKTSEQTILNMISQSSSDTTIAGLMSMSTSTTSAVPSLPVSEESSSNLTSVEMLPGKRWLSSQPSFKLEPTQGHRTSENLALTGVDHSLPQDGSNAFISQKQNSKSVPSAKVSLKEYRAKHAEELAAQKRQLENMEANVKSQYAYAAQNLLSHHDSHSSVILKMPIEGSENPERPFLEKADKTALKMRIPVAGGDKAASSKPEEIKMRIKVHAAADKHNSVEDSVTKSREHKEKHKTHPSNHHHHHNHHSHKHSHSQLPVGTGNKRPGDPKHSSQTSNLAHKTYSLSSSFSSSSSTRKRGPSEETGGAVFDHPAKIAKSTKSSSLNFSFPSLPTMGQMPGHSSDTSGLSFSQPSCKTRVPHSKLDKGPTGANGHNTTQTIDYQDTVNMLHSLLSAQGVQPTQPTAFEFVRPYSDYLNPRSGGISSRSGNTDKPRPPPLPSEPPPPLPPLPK

What is called IC50 is the point on the concentration scale where inhibition reaches its midpoint. Low readings indicate higher potency, high ones lower potency. As for `CS(=O)(Cc1ccnc(Nc2cc(-c3ccc(F)c4ccoc34)c(F)cn2)c1)=NC(=O)NCC(F)(F)F` (racemic) [Example 13, (rac)-1-{[(2-{[5-Fluoro-4-(4-fluoro-1-benzofuran-7-yl)pyridin-2-yl]amino}pyridin-4-yl)methyl](methyl)oxido-λ^6-sulfanylidene}-3-(2,2,2-trifluoroethyl)urea], the concentration for half-maximal inhibition (IC50) against CDK9/CycT1 [1] was 2.6 nM; on CDK9/CycT1 [2], 2.3 nM. At CDK9/CycT1 [1], the “Selectivity CDK9 over CDK2: IC50 (CDK2)/IC50 (CDK9)” value (“Selectivity CDK9 over CDK2: IC50” below) is 108.

`CS(=N)(=O)Cc1cc(Nc2cc(-c3ccc(F)c4ccoc34)c(F)cn2)nc(C(F)(F)F)c1` (racemic) [Example 3, (rac)-5-Fluoro-4-(4-fluoro-1-benzofuran-7-yl)-N-{4-[(S-methylsulfonimidoyl)methyl]-6-(trifluoromethyl)pyridin-2-yl}pyridin-2-amine]: the 50% inhibitory concentration (IC50) against CDK9/CycT1 [1] was determined as 5.8 nM; on CDK9/CycT1 [2], 2.7 nM. For the same compound, the “Selectivity CDK9 over CDK2: IC50” value at CDK9/CycT1 [1] is reported as 3.6.

With `CS(=N)(=O)Cc1ccnc(Nc2cc(-c3ccc(F)c4ccoc34)c(F)cn2)c1` (racemic) [Example 5, (rac)-5-Fluoro-4-(4-fluoro-1-benzofuran-7-yl)-N-{4-[(S-methylsulfonimidoyl)methyl]pyridin-2-yl}pyridin-2-amine], at CDK9/CycT1 [1], inhibition was half-maximal at 3.4 nM (IC50) and the “Selectivity CDK9 over CDK2: IC50” value is 38. For the same compound, the IC50 against CDK9/CycT1 [2] came to 2 nM.

Compound `CCc1cc(CS(C)(=N)=O)cc(Nc2cc(-c3ccc(F)c4ccoc34)c(F)cn2)n1` (racemic) [Example 8, (rac)-N-{6-Ethyl-4-[(S-methylsulfonimidoyl)methyl]pyridin-2-yl}-5-fluoro-4-(4-fluoro-1-benzofuran-7-yl)pyridin-2-amine] returned an IC50 on CDK9/CycT1 [2] of 1.3 nM.

As to `Cc1cc(CS(C)(=N)=O)cc(Nc2cc(-c3ccc(F)c4ccoc34)c(F)cn2)n1` (racemic) [Example 7, (rac)-5-Fluoro-4-(4-fluoro-1-benzofuran-7-yl)-N-{6-methyl-4-[(S-methylsulfonimidoyl)-methyl]pyridin-2-yl}pyridin-2-amine], at CDK9/CycT1 [1], the 50% inhibitory concentration (IC50) is 2.1 nM and the “Selectivity CDK9 over CDK2: IC50” value is recorded as 19. The compound also displayed an IC50 at CDK9/CycT1 [2] of 1.3 nM.

On to `CS(=O)(Cc1ccnc(Nc2cc(-c3ccc(F)c4ccoc34)c(F)cn2)c1)=NC(=O)C(F)(F)F` (racemic) [Example 6, (rac)-2,2,2-Trifluoro-N-{[(2-{[5-fluoro-4-(4-fluoro-1-benzofuran-7-yl)pyridin-2-yl]amino}pyridin-4-yl)methyl](methyl)oxido-λ^6-sulfanylidene}acetamide], for which, at CDK9/CycT1 [1], 4.9 nM corresponded to half-maximal inhibition (IC50) and the “Selectivity CDK9 over CDK2: IC50” value was found to be 110. This compound yielded an IC50 at CDK9/CycT1 [2] of 6.4 nM.

For `CCNC(=O)N=S(C)(=O)Cc1ccnc(Nc2cc(-c3ccc(F)c4ccoc34)c(F)cn2)c1` (racemic) [Example 12, (rac)-1-Ethyl-3-{[(2-{[5-fluoro-4-(4-fluoro-1-benzofuran-7-yl)pyridin-2-yl]amino}pyridin-4-yl)methyl](methyl)oxido-λ^6-sulfanylidene}urea], at CDK9/CycT1 [1], the IC50 is 2.6 nM and the “Selectivity CDK9 over CDK2: IC50” value is recorded as 44. Also, the IC50 at CDK9/CycT1 [2] was found to be 1.9 nM.

As to `CC(=O)N=S(C)(=O)Cc1ccnc(Nc2cc(-c3ccc(F)c4ccoc34)c(F)cn2)c1` (racemic) [Example 10, (rac)-N-{[(2-{[5-fluoro-4-(4-fluoro-1-benzofuran-7-yl)pyridin-2-yl]amino}pyridin-4-yl)methyl](methyl)oxido-λ^6-sulfanylidene}acetamide], at CDK9/CycT1 [1], the IC50 was 2.7 nM and the “Selectivity CDK9 over CDK2: IC50” value is reported as 61. On CDK9/CycT1 [2], it took 2.3 nM to reach half-maximal inhibition (IC50).

Regarding `CS(=O)(Cc1ccnc(Nc2cc(-c3ccc(F)c4ccoc34)c(F)cn2)c1)=NC#N` (racemic) [Example 9, (rac)-{[(2-{[5-fluoro-4-(4-fluoro-1-benzofuran-7-yl)pyridin-2-yl]amino}pyridin-4-yl)methyl](methyl)oxido-λ^6-sulfanylidene}cyanamide], the values for the half-maximal inhibitory concentration (IC50) against CDK9/CycT1 [1] and against CDK9/CycT1 [2] were 2.6 nM and 1.6 nM, respectively. Moreover, the “Selectivity CDK9 over CDK2: IC50” value on CDK9/CycT1 [1] turned out to be 56.

Regarding `CCOC(=O)N=S(C)(=O)Cc1ccnc(Nc2cc(-c3ccc(F)c4ccoc34)c(F)cn2)c1` (racemic) [Example 11, (rac)-Ethyl {[(2-{[5-fluoro-4-(4-fluoro-1-benzofuran-7-yl)pyridin-2-yl]amino}pyridin-4-yl)methyl](methyl)oxido-λ^6-sulfanylidene}carbamate], the IC50 against CDK9/CycT1 [1] stood at 3.1 nM; on CDK9/CycT1 [2], 2 nM. The “Selectivity CDK9 over CDK2: IC50” value at CDK9/CycT1 [1] stood at 45.

Consider `CS(=O)(Cc1cc(Nc2cc(-c3ccc(F)c4ccoc34)c(F)cn2)nc(C(F)(F)F)c1)=NC(=O)C(F)(F)F` (racemic) [Example 4, (rac)-2,2,2-Trifluoro-N-[{[2-{[5-fluoro-4-(4-fluoro-1-benzofuran-7-yl)pyridin-2-yl]amino}-6-(trifluoromethyl)pyridin-4-yl]methyl}(methyl)oxido-λ^6-sulfanylidene]acetamide], for which, on CDK9/CycT1 [1], the IC50 is 19 nM and the “Selectivity CDK9 over CDK2: IC50” value is 5.8. For the same compound, the half-maximal inhibitory concentration (IC50) against CDK9/CycT1 [2] is 7 nM.

Regarding `CS(=N)(=O)Cc1cc(F)nc(Nc2cc(-c3ccc(F)c4ccoc34)c(F)cn2)c1` (racemic) [Example 1, (rac)-5-Fluoro-4-(4-fluoro-1-benzofuran-7-yl)-N-{6-fluoro-4-[(S-methylsulfonimidoyl)methyl]pyridin-2-yl}pyridin-2-amine], the IC50 on CDK9/CycT1 [1] is 4 nM; on CDK9/CycT1 [2], 1.5 nM. Moreover, at CDK9/CycT1 [1], the “Selectivity CDK9 over CDK2: IC50” value came out at 11.

As to `CS(=O)(Cc1cc(F)nc(Nc2cc(-c3ccc(F)c4ccoc34)c(F)cn2)c1)=NC(=O)C(F)(F)F` (racemic) [Example 2, (rac)-2,2,2-Trifluoro-N-{[(2-fluoro-6-{[5-fluoro-4-(4-fluoro-1-benzofuran-7-yl)pyridin-2-yl]amino}pyridin-4-yl)methyl](methyl)oxido-λ^6-sulfanylidene}acetamide], on CDK9/CycT1 [1], the 50% inhibitory concentration (IC50) was 7 nM and the “Selectivity CDK9 over CDK2: IC50” value was found to be 54. The compound also yielded an IC50 at CDK9/CycT1 [2] of 7.8 nM.
